The record followed here is patent publication US20070117770A1, “Human ribosomal DNA (rDNA) and ribosomal RNA (rRNA) nucleic acids and uses thereof” (Cylene Pharmaceuticals, Inc., priority 2005, published 2007).

Holding throughout (test): Protein kinase inhibition assay
The target in assay [1] is Ron(h) (Homo sapiens, UniProt Q04912). Type of assay: biochemical. Particulars: read-out: percent residual activity of Ron(h). As to the method: (§1) Certain compounds were tested for activity in protein kinase inhibition assays. All substrates were dissolved and diluted to working stocks in de-ionized water, apart from histone H1 (10× working stock in 20 mM MOPS pH 7.0), PDKtide (10× working stock in 50 mM Tris pH 7.0) ATF2 (which is typically stored at a 20× working stock in 50 mM Tris pH 7.5, 150 mM NaCl, 0.1 mM EGTA, 0.03% Brij-35, 50% glycerol, 1 mM benzamidine, 0.2 mM PMSF and 0.1% R-mercaptoethanol), KKLNRTLSFAEPG (SEQ ID NO:203) and RRRLSFAEPG (SEQ ID NO:204) (50 mM HEPES pH 7.4) and GGEEEEYFELVKKKK (SEQ ID NO:205) (20 mM MOPS pH 7.0). All kinases were pre-diluted to a 10× working concentration prior to addition into the assay. The composition of the dilution buffer for each kinase is detailed below.
(§2) In a final reaction volume of 25 μl, Ron (h) (5-10 mU) is incubated with 8 mM MOPS pH 7.0, 0.2 mM EDTA, 250 μM KKSRGDYMTMQIG (SEQ ID NO:210), 10 mM MgAcetate and [gamma-33P-ATP] (specific activity approx. 500 cpm/pmol, concentration as required). The reaction is initiated by the addition of the MgATP mix. After incubation for 40 minutes at room temperature, the reaction is stopped by the addition of 5 μl of a 3% phosphoric acid solution. 10 μl of the reaction is then spotted onto a P30 filtermat and washed three times for 5 minutes in 75 mM phosphoric acid and once in methanol prior to drying and scintillation counting.

The target of assay [2] is MSK1(h) (Homo sapiens, UniProt O75582). It is filed as biochemical. Conditions: read-out: percent residual activity of MSK1(h). As to the method: as §1
as §2, with “MSK1” for “Ron”, “30” for “250”, “GRPRTSSFAEGKK” for “KKSRGDYMTMQIG”, “NO:220),” for “NO:210),”

Assay [3] deals with CK1(y). Type of assay: biochemical, yeast. Conditions: 2.5 μM. As to the method:
as §1
as §2, with “25 μl, CK1 (y) (5-10 mU)” for “25 μl, Ron (h) (5-10 mU)”, “mM EDTA, 200 μM KRRRALS(p)VASLPGL” for “mM EDTA, 250 μM KKSRGDYMTMQIG”, “200 μM KRRRALS(p)VASLPGL (SEQ ID” for “250 μM KKSRGDYMTMQIG (SEQ ID”, “(SEQ ID NO:214), 10 mM” for “(SEQ ID NO:210), 10 mM”, “of 5 μL of a” for “of 5 μl of a”

Assay [4] deals with CLK3(h) (Homo sapiens, UniProt P49761). Type of assay: biochemical. Conditions: read-out: percent residual activity of CLK3(h). As for the experimental part:
as §1

The target in assay [5] is CK1γ1(h) (Homo sapiens, UniProt Q9HCP0). Type of assay: biochemical. Particulars: read-out: percent residual activity of CK1γ1(h). As for the experimental part:
as §1

Assay [6] has as its target DYRK2(h) (Homo sapiens, UniProt Q92630). It is filed as biochemical. Conditions: read-out: percent residual activity of DYRK2(h). As to the method:
as §1

Assay [7] has as its target EGFR(T790M, L858R)(h) (Homo sapiens, UniProt P00533, L858R/T790M). Type of assay: biochemical. Conditions: read-out: percent residual activity of EGFR(T790M, L858R)(h). As to the method:
as §1

For assay [8], the target named is Pim-2(h) (Homo sapiens, UniProt Q9P1W9). Type of assay: biochemical. Particulars: read-out: percent residual activity of Pim-2(h). As to the method: as §1
Assay [9] deals with CK2α2(h) (Homo sapiens, UniProt P19784). It is filed as biochemical. Conditions: read-out: percent residual activity of CK2α2(h). As for the experimental part: as §1
Assay [10] deals with PASK(h) (Homo sapiens, UniProt Q96RG2). Type of assay: biochemical. Conditions: for remaining activity at 2.5 µM: read-out: percent residual activity of PASK(h). As for the experimental part: as §1
In assay [11] the target is LOK(h) (Homo sapiens, UniProt O94804). Type of assay: biochemical. Conditions: read-out: percent residual activity of LOK(h). As to the method:
as §1

The target in assay [12] is MARK1(h) (Homo sapiens, UniProt Q9P0L2). Type of assay: biochemical. Particulars: read-out: percent residual activity of MARK1(h). As to the method: as §1
Assay [13] has as its target MSSK1(h) (Homo sapiens, UniProt Q9UPE1). Type of assay: biochemical. Conditions: read-out: percent residual activity of MSSK1(h). As to the method:
as §1

The target in assay [14] is CDK9/cyclin T1(h) (Homo sapiens, UniProt P50750). Type of assay: biochemical. Particulars: read-out: percent residual activity of CDK9/cyclin T1(h). As for the experimental part:
as §1

The target of assay [15] is CDK6/cyclinD3(h) (Homo sapiens, UniProt Q00534). It is filed as biochemical. Particulars: read-out: percent residual activity of CDK6/cyclinD3(h). As for the experimental part: as §1
as §2, with “CDK6/cyclinD3” for “Ron”, “0.1 mg/ml histone H1,” for “250 μM KKSRGDYMTMQIG (SEQ ID NO:210),”, “MGATP” for “MgATP”

SMILES strings stand for the structures. Where only a bound is given, the exact number is not on record here.

In general, inhibition refers to the share of the control response that was lost under treatment. Low readings indicate a weak effect, high ones a strong effect.

Chain of PASK(h) (Q96RG2 whole entry): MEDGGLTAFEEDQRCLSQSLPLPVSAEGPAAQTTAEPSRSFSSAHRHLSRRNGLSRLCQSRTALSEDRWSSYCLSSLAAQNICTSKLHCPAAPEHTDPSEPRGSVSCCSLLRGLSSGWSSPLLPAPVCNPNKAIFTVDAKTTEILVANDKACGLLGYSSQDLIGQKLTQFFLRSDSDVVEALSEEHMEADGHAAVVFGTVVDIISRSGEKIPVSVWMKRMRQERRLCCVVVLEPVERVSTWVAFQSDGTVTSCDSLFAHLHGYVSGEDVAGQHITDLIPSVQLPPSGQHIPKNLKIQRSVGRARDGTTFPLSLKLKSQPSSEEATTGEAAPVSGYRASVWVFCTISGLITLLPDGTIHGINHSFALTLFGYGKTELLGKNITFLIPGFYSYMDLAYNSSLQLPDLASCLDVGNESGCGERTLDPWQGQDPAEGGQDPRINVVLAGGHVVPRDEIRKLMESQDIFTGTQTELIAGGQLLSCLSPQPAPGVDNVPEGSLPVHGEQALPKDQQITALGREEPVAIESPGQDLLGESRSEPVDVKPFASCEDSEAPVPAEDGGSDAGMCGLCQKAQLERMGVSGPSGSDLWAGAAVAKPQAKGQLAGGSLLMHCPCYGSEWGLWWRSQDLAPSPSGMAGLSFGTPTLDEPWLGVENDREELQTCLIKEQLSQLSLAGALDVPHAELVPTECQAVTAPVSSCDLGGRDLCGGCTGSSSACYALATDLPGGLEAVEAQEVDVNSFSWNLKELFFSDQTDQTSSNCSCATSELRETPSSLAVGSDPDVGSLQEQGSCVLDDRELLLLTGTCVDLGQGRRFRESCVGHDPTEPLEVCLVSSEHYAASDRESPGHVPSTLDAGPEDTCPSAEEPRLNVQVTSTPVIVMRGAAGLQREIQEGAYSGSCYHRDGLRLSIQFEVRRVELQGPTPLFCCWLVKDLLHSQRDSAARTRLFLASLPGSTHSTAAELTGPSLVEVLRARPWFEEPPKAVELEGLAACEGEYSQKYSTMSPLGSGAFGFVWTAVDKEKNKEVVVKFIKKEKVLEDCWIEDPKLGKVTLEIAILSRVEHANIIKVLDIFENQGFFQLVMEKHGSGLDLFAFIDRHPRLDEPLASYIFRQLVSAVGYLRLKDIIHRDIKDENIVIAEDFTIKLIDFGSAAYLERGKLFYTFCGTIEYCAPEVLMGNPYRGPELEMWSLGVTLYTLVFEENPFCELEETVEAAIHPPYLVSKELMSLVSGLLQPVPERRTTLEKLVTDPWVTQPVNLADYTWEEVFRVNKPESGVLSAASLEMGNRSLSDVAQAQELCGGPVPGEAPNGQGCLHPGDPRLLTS
Chain of EGFR(T790M, L858R)(h) (P00533 25-1210 T790M/L858R): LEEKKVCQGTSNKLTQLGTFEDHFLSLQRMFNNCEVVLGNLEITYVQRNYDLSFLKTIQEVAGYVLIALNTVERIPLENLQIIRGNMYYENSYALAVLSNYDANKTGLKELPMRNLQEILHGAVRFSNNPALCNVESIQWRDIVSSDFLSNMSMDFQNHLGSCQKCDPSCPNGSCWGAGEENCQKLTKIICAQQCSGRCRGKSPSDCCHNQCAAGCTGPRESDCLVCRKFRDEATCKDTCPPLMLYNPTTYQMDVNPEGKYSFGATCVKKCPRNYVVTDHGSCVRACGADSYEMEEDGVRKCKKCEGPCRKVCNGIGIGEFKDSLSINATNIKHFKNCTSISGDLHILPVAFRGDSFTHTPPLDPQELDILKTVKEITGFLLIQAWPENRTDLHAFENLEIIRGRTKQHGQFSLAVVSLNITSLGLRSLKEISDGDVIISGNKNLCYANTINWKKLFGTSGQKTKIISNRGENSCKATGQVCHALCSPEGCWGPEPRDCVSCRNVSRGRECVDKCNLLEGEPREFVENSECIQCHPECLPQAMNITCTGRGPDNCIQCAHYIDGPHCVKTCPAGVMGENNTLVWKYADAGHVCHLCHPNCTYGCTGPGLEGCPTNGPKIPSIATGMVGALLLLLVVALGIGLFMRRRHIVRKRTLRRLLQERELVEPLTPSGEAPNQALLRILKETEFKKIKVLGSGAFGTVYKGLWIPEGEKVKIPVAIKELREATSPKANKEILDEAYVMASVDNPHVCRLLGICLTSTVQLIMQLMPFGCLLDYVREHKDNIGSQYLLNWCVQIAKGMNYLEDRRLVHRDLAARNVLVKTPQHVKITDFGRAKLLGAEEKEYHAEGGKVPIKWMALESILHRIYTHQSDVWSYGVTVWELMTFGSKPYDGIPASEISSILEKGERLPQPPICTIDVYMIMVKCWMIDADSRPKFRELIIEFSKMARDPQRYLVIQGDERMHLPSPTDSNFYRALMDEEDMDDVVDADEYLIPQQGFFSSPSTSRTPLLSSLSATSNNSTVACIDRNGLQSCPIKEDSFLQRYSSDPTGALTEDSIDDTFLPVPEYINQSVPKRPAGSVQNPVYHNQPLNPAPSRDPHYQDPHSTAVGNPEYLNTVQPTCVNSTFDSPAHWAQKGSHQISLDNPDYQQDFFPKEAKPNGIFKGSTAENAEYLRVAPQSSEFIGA
Chain of MSSK1(h) (Q9UPE1 whole entry): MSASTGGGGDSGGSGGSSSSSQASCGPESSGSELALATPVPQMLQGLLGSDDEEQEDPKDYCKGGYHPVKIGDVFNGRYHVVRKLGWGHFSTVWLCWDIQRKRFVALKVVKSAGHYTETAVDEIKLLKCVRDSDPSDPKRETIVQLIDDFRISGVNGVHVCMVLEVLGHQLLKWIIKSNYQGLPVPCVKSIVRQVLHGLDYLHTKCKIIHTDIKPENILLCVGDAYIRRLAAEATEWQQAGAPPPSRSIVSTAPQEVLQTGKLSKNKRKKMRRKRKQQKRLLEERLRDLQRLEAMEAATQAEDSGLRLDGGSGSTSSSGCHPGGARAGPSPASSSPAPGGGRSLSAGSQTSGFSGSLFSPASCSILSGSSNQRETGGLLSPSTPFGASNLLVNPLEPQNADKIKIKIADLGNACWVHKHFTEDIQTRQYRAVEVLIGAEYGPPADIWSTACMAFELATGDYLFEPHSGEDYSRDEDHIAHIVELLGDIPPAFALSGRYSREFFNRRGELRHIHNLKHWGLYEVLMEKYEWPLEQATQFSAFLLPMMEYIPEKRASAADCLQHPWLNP
Chain of MARK1(h) (Q9P0L2 whole entry): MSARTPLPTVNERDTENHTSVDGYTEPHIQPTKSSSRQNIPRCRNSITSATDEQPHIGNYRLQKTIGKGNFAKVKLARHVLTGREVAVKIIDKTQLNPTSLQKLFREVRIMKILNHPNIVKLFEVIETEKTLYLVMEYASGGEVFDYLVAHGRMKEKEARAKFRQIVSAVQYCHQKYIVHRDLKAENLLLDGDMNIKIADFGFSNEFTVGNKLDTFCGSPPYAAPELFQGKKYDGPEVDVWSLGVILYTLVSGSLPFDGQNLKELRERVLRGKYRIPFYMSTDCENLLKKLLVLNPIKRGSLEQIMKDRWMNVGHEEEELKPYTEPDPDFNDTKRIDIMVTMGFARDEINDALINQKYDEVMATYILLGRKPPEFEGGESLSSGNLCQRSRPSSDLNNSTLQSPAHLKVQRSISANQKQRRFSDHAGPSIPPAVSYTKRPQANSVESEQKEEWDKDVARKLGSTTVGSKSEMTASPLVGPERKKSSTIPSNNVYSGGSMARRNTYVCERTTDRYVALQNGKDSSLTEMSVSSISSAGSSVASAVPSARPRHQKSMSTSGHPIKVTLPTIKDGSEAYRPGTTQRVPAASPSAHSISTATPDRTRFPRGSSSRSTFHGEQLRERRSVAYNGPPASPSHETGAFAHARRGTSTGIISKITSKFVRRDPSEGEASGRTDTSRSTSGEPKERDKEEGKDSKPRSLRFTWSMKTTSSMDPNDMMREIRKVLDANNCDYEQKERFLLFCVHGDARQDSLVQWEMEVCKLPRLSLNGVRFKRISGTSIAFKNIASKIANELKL
Chain of DYRK2(h) (Q92630 whole entry): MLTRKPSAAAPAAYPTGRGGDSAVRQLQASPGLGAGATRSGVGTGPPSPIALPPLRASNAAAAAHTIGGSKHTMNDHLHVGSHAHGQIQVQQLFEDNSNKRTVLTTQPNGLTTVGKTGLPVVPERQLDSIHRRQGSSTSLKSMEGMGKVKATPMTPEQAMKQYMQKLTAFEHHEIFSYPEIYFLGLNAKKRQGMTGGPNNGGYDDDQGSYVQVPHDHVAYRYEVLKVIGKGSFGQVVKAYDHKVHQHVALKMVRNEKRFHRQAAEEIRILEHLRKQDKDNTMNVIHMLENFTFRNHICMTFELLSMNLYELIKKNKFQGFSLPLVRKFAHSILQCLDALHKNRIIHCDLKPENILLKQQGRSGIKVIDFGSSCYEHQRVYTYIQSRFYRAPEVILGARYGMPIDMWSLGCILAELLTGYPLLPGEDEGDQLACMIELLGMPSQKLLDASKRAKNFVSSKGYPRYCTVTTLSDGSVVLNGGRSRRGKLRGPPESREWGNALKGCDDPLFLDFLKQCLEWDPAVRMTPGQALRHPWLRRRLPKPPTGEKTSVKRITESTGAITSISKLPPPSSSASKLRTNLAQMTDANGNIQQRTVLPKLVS
Chain of CK2α2(h) (P19784 whole entry): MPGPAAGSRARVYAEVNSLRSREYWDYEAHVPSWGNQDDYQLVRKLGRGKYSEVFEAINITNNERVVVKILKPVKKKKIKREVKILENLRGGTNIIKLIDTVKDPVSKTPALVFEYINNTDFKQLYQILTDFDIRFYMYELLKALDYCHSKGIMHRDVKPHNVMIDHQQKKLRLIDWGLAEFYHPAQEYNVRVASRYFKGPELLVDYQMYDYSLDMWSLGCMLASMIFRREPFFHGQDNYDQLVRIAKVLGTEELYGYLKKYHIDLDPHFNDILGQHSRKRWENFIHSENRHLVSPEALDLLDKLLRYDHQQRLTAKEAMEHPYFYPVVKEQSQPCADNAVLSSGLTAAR

Regarding `CN1CCCC1CCNC(=O)c1cn2c3c(c(N4CCC(c5cnccn5)C4)c(F)cc3c1=O)Oc1cc3ccccc3cc1-2` (stereo not shown) [Compound A-1], the remaining activity at 2.5 µM in assay [1] was found to be 71%; in assay [2], 61%; in [4] it was 84%; in [5], 90%; in assay [6] it was 70%; in [7] it was 93%. Also, the remaining activity at 2.5 µM in [8] came out at 77%; in assay [9] it was 115%; in [10] it was 10%; in assay [11], 88%; in [12], 83%; in assay [13], 41%. For the same molecule, the remaining activity at 2.5 µM in assay [14] came to 116%; in assay [15] it was 85%. In addition, in [3], the “percent residual activity of CK1(y)” value is on record as 78%. The inhibition at 2.5 µM in [10] is greater than 80%.

`CC(=O)N1CCN(c2ccc3c(=O)c(C(=O)NCCN4CCCC4)c4n(C)c5ccccc5n4c3n2)CC1` [Compound B-1]: the remaining activity at 2.5 µM in [1] amounted to 95%; in assay [2], 99%; in assay [4], 96%; in assay [5] it was 100%; in [6], 75%; in assay [7] it was 99%. The remaining activity at 2.5 µM in assay [8] turned out to be 110%; in assay [9], 116%; in assay [10], 100%; in [11], 106%; in [12], 95%; in assay [13], 107%. The remaining activity at 2.5 µM in assay [14] and in [15] was 100% each time. The “percent residual activity of CK1(y)” value in [3] is 77%.
